Series [1] relates to cAMP-specific phosphodiesterase (PDE IV). Kind of series: Inhibition of the PDE IV enzyme derived from a dog trachea. The format is biochemical. To be noted: test compound 10^−6 M; PDE IV from dog tracheal smooth muscle; substrate cAMP 1 μM. In outline:
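Enzyme purified from dog tracheal smooth muscle; [3H]cAMP substrate at 1 μM final in 50 mM BES pH 7.2, 1 mM MgCl2, 0.1 mg/ml soybean trypsin inhibitor, 30° C for 10–30 min, 1.7% DMSO final. After HCl stop, product converted to adenosine by 5′-nucleotidase, separated on DEAE-Sephadex and scintillation-counted.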

With `COc1ccc(C(=O)Nc2c(Cl)cncc2Cl)c2c1OCC2CC(=O)Nc1c(Cl)cncc1Cl` (racemic) [Compound 32, (±)-4-[(3,5-Dichloro-4-pyridyl)aminocarbonyl]-3-[(3,5-dichloro-4-pyridyl)aminocarbonyl]methyl-7-methoxy-2,3-dihydrobenzofuran], the melting point was > 300 °C. Besides, in series [1], the “Enzyme Inhibitory Activity (%, 10^−6 M)” value was found to be 81%.
In the same order, the values of `COc1ccc(CSc2ccncc2)c2c1OCC2C` (racemic) [Compound 59, (±)-7-Methoxy-3-methyl-4-(4-pyridylthiomethyl)-2,3-dihydrobenzofuran] are 110 to 112 °C and 24%.
The matching figures for `COc1ccc(C(Sc2ccncc2)c2ccccc2)c2c1OCC2C` (racemic) [Compound 60A, (±)-7-Methoxy-3-methyl-4-[1-phenyl-1-(4-pyridylthio)-methyl]-2,3-dihydrobenzofuran]: 59 to 62 °C and 15%.
The matching figures for `COc1ccc(C(Sc2ccncc2)c2ccccc2)c2c1OCC2C` (racemic) [Compound 60B, (±)-7-Methoxy-3-methyl-4-[1-phenyl-1-(4-pyridylthio)-methyl]-2,3-dihydrobenzofuran]: 84 to 85 °C and 4%.
`COc1ccc(C(C#N)Cc2c(Cl)cncc2Cl)c2c1OC(C)(C)C2` (racemic) [Compound 63, (±)-4-[1-Cyano-2-(3,5-dichloro-4-pyridyl)ethyl]-2,2-dimethyl-7-methoxy-2,3-dihydrobenzofuran]: the melting point fell in the range of 158 to 162 °C. Moreover, in series [1], the “Enzyme Inhibitory Activity (%, 10^−6 M)” value is on record as 85%.
In the same order, the values of `COc1ccc(C(=Cc2ccncc2)c2ccccc2)c2c1OCC2C` (racemic) [Compound 80, (±)-7-Methoxy-3-methyl-4-[1-phenyl-2-(4-pyridyl)ethenyl]-2,3-dihydrobenzofuran] are 103 to 105.5 °C and 17%.
In the same order, the values of `COc1ccc(C(=O)Cc2c(Cl)cncc2Cl)c2c1OCC2C` (racemic) [Compound 103, (±)-4-[2-(3,5-Dichloro-4-pyridyl)-1-oxoethyl]-7-methoxy-3-methyl-2,3-dihydrobenzofuran] are 99 to 104 °C and 88%.
In the same order, the values of `COc1ccc(C(=O)Cc2ccncc2)c2c1OCC2C` (racemic) [Compound 104, (±)-7-Methoxy-3-methyl-4-[1-oxo-2-(4-pyridyl)ethyl]-2,3-dihydrobenzofuran] are 111 to 117 °C and 48%.
On to `CCCCc1cc2c(C(=O)Nc3c(Cl)cncc3Cl)ccc(OC)c2o1` [Compound 36, 2-Butyl-4-(3,5-dichloropyridin-4-ylaminocarbonyl)-7-methoxybenzofuran], for which the melting point was 160 to 164 °C. Besides, in series [1], the “Enzyme Inhibitory Activity (%, 10^−6 M)” value is 87%.
The matching figures for `COc1ccc(C(=O)Nc2c(Cl)cncc2Cl)c2cc(-c3ccncc3)oc12` [Compound 38, 4-[(3,5-Dichloro-4-pyridyl)aminocarbonyl]-7-methoxy-2-(4-pyridyl)benzofuran]: 289 to 290 °C and 89%.
In the same order, the values of `COc1ccc(C(=O)Nc2c(Cl)cncc2Cl)c2cc(-c3ccccn3)oc12` [Compound 40, 4-[(3,5-Dichloro-4-pyridyl)aminocarbonyl]-7-methoxy-2-(2-pyridyl)benzofuran] are 263 to 264 °C and 89%.
In the same order, the values of `COc1ccc(C(=O)Nc2c(Cl)cncc2Cl)c2c(-c3ccccc3)coc12` [Compound 42, 4-[(3,5-Dichloro-4-pyridyl)aminocarbonyl]-7-methoxy-3-phenylbenzofuran] are 177 to 179 °C and 73%.
For the compound `CCOC(=O)Cc1coc2c(OC)ccc(C(=O)Nc3c(Cl)cncc3Cl)c12` [Compound 43, 3-Ethoxycarbonylmethyl-4-[(3,5-dichloro-4-pyridyl)-aminocarbonyl]-7-methoxybenzofuran], the melting point was in the range of 216 to 218 °C. Further, the “Enzyme Inhibitory Activity (%, 10^−6 M)” value in series [1] came to 62%.
In the same order, the values of `COc1ccc(CCc2c(Cl)cncc2Cl)c2c1OC(C)(C)C2` [Compound 45, 4-[2-(3,5-Dichloro-4-pyridyl)ethyl]-7-methoxy-2,2-dimethyl-2,3-dihydrobenzofuran] are 128 to 133 °C and 74%.
For the compound `COc1ccc(CSc2ccncc2)c2c1OC(C)(C)C2` [Compound 48, 7-Methoxy-2,2-dimethyl-4-(4-pyridylthiomethyl)-2,3-dihydrobenzofuran], the melting point fell in the range of 109 to 113 °C. For the same compound, in series [1], the “Enzyme Inhibitory Activity (%, 10^−6 M)” value is on record as 41%.
The matching figures for `CCOC(=O)/C(=C/c1ccc(OC)c2c1CC(C)(C)O2)c1ccncc1` [Compound 87, (E)-4-[2-Ethoxycarbonyl-2-(4-pyridyl)ethenyl]-7-methoxy-2,2-dimethyl-2,3-dihydrobenzofuran]: 98 to 100 °C and 61%.
In the same order, the values of `CCOC(=O)C(C#N)=Cc1ccc(OC)c2c1CC(C)(C)O2` [Compound 89, 4-(2-Cyano-2-ethoxycarbonylethenyl)-7-methoxy-2,2-dimethyl-2,3-dihydrobenzofuran] are 112 to 117 °C and 33%.
In the same order, the values of `CCC1(CC)Cc2c(C(=O)Cc3c(Cl)cncc3Cl)ccc(OC)c2O1` [Compound 97, 4-[2-(3,5-Dichloro-4-pyridyl)-1-oxoethyl]-2,2-diethyl-7-methoxy-2,3-dihydrobenzofuran] are 164 to 166 °C and 92%.
Compound `COc1ccc(C(=O)Cc2c(Cl)cncc2Cl)c2c1OC1(CCCC1)C2` [Compound 99, 4-[2-(3,5-Dichloro-4-pyridyl)-1-oxoethyl]-7-methoxy-spiro[2,3-dihydrobenzofuran-2,1′-cyclopentane]] showed a melting point of 159 to 162 °C. In addition, the “Enzyme Inhibitory Activity (%, 10^−6 M)” value in series [1] is 91%.
The matching figures for `COc1ccc(C(=O)Nc2c(Cl)cncc2Cl)c2c1OC(C)(C)C=C2` [Compound 121, 5-(3,5-Dichloro-4-pyridylaminocarbonyl)-8-methoxy-2,2-dimethylbenzopyran]: 174 to 178 °C and 85%.
The matching figures for `COc1ccc(C(=O)Nc2c(Cl)cncc2Cl)c2c1OC(C)(C)CC2` [Compound 122, 5-(3,5-Dichloro-4-pyridylaminocarbonyl)-8-methoxy-2,2-dimethyl-3,4-dihydrobenzopyran]: 155 to 156 °C and 92%.
In the same order, the values of `COc1ccc(C=Cc2c(Cl)cncc2Cl)c2c1CC1(CCCC1)O2` [Compound 131, 7-[2-(3,5-Dichloro-4-pyridyl)ethenyl]-4-methoxy-spiro[2,3-dihydrobenzofuran-2,1′-cyclopentane]] are 99 to 101 °C and 51%.

Source of the values: US6716987B1, “Derivatives of benzofuran or benzodioxazole compounds” (Kyowa Hakko Kogyo Co., Ltd., priority 1995, dated 2004).
